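96-well plates; 48 h exposure; 5 concentrations. Endpoints by linear interpolation between flanking doses. Not reached: highest tested concentration assigned. At the TGI there is no net growth.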
Experiments:
Assay in all cases: NCI-60 cell line screen, 48 h
OVCAR-8 ovarian = test system: OVCAR-8 ovarian
UACC-62 melanoma = test system: UACC-62 melanoma
IGROV1 ovarian = test system: IGROV1 ovarian
SNB-75 CNS = test system: SNB-75 CNS
HS 578T breast = test system: HS 578T breast
T-47D breast = test system: T-47D breast
ACHN renal = test system: ACHN renal
SF-268 CNS = test system: SF-268 CNS
HCC-2998 colon = test system: HCC-2998 colon
MOLT-4 leukemia = test system: MOLT-4 leukemia
HOP-92 NSCLC = test system: HOP-92 NSCLC
DU-145 prostate = test system: DU-145 prostate
LOX IMVI melanoma = test system: LOX IMVI melanoma
NCI/ADR-RES ovarian = test system: NCI/ADR-RES ovarian
MDA-MB-435 = test system: MDA-MB-435
SNB-19 CNS = test system: SNB-19 CNS
SR leukemia = test system: SR leukemia
OVCAR-3 ovarian = test system: OVCAR-3 ovarian
NCI-H23 lung = test system: NCI-H23 lung
MALME-3M melanoma = test system: MALME-3M melanoma
RXF 393 renal = test system: RXF 393 renal
OVCAR-5 ovarian = test system: OVCAR-5 ovarian
HT29 colon = test system: HT29 colon
SK-OV-3 ovarian = test system: SK-OV-3 ovarian
MCF7 breast = test system: MCF7 breast
SN12C renal = test system: SN12C renal
M14 melanoma = test system: M14 melanoma
TK-10 renal = test system: TK-10 renal
A549 NSCLC = test system: A549 NSCLC
SW-620 colon = test system: SW-620 colon
EKVX NSCLC = test system: EKVX NSCLC
HOP-62 NSCLC = test system: HOP-62 NSCLC
OVCAR-4 ovarian = test system: OVCAR-4 ovarian
HCT-15 colon = test system: HCT-15 colon
PC-3 prostate = test system: PC-3 prostate
K-562 leukemia = test system: K-562 leukemia
A498 renal = test system: A498 renal
COLO 205 colon = test system: COLO 205 colon
UACC-257 melanoma = test system: UACC-257 melanoma
CAKI-1 renal = test system: CAKI-1 renal
NCI-H460 lung = test system: NCI-H460 lung
HL-60(TB) leukemia = test system: HL-60(TB) leukemia
MDA-MB-231 breast = test system: MDA-MB-231 breast
HCT-116 colon = test system: HCT-116 colon
UO-31 renal = test system: UO-31 renal
CCRF-CEM leukemia = test system: CCRF-CEM leukemia
SK-MEL-28 melanoma = test system: SK-MEL-28 melanoma
SF-295 CNS = test system: SF-295 CNS
SK-MEL-5 melanoma = test system: SK-MEL-5 melanoma
MDA-N = test system: MDA-N
NCI-H226 lung = test system: NCI-H226 lung
U251 CNS = test system: U251 CNS
NCI-H522 lung = test system: NCI-H522 lung
786-0 renal = test system: 786-0 renal
BT-549 breast = test system: BT-549 breast
KM12 colon = test system: KM12 colon
SF-539 CNS = test system: SF-539 CNS
SK-MEL-2 melanoma = test system: SK-MEL-2 melanoma

Work on `CCN(CC)/C(Cl)=C(Cl)\C(=C1\Nc2ccc(OC)cc21)[N+](=O)[O-]` yielded a TGI (OVCAR-8 ovarian) greater than 100 µM, a TGI (UACC-62 melanoma) greater than 100 µM and a TGI (IGROV1 ovarian) greater than 100 µM. For the same compound, the TGI (SNB-75 CNS) was 81.8 µM, the TGI (HS 578T breast) was greater than 100 µM and the TGI (T-47D breast) was greater than 100 µM. For the same compound, the TGI (ACHN renal) was greater than 100 µM, the TGI (SF-268 CNS) was greater than 100 µM and the TGI (HCC-2998 colon) was greater than 100 µM. The TGI (MOLT-4 leukemia) was 85.2 µM, the TGI (HOP-92 NSCLC) was greater than 100 µM and the TGI (DU-145 prostate) was greater than 100 µM. For the same compound, the TGI (LOX IMVI melanoma) was greater than 100 µM, the TGI (NCI/ADR-RES ovarian) was greater than 100 µM and the TGI (MDA-MB-435) was greater than 100 µM. The TGI (SNB-19 CNS) was greater than 100 µM, the TGI (SR leukemia) was 65 µM and the TGI (OVCAR-3 ovarian) was 57.3 µM. For the same compound, the TGI (NCI-H23 lung) was greater than 100 µM, the TGI (MALME-3M melanoma) was greater than 100 µM and the TGI (RXF 393 renal) was 72.9 µM. The TGI (OVCAR-5 ovarian) was greater than 100 µM, the TGI (HT29 colon) was greater than 100 µM and the TGI (SK-OV-3 ovarian) was greater than 100 µM. It also gave a TGI (MCF7 breast) greater than 100 µM, a TGI (SN12C renal) greater than 100 µM and a TGI (M14 melanoma) greater than 100 µM. It also gave a TGI (TK-10 renal) greater than 100 µM, a TGI (A549 NSCLC) greater than 100 µM and a TGI (SW-620 colon) greater than 100 µM. The TGI (EKVX NSCLC) was greater than 100 µM, the TGI (HOP-62 NSCLC) was greater than 100 µM and the TGI (OVCAR-4 ovarian) was greater than 100 µM. The TGI (HCT-15 colon) was greater than 100 µM, the TGI (PC-3 prostate) was greater than 100 µM and the TGI (K-562 leukemia) was greater than 100 µM. For the same compound, the TGI (A498 renal) was greater than 100 µM, the TGI (COLO 205 colon) was greater than 100 µM and the TGI (UACC-257 melanoma) was greater than 100 µM. The TGI (CAKI-1 renal) was greater than 100 µM, the TGI (NCI-H460 lung) was greater than 100 µM and the TGI (HL-60(TB) leukemia) was greater than 100 µM. The TGI (MDA-MB-231 breast) was greater than 100 µM, the TGI (HCT-116 colon) was greater than 100 µM and the TGI (UO-31 renal) was greater than 100 µM. For the same compound, the TGI (CCRF-CEM leukemia) was 93.6 µM, the TGI (SK-MEL-28 melanoma) was greater than 100 µM and the TGI (SF-295 CNS) was greater than 100 µM. The TGI (SK-MEL-5 melanoma) was greater than 100 µM, the TGI (MDA-N) was greater than 100 µM and the TGI (NCI-H226 lung) was 69.2 µM. It also gave a TGI (U251 CNS) greater than 100 µM, a TGI (NCI-H522 lung) of 67.3 µM and a TGI (786-0 renal) greater than 100 µM. It also gave a TGI (BT-549 breast) greater than 100 µM and a TGI (KM12 colon) greater than 100 µM.

`CCCS(=O)(=O)Nc1ccc(Nc2c3ccccc3nc3ccccc23)c(OC)c1` showed a TGI (SF-539 CNS) of 4.18 µM, a TGI (OVCAR-8 ovarian) of 5.82 µM and a TGI (UACC-62 melanoma) of 13.1 µM. The TGI (IGROV1 ovarian) was 18.2 µM, the TGI (SNB-75 CNS) was 6.49 µM and the TGI (HS 578T breast) was 16.7 µM. For the same compound, the TGI (T-47D breast) was 20.5 µM, the TGI (ACHN renal) was 4.02 µM and the TGI (SF-268 CNS) was 8.31 µM. The TGI (HCC-2998 colon) was 6.3 µM, the TGI (MOLT-4 leukemia) was 0.231 µM and the TGI (HOP-92 NSCLC) was 17.5 µM. The TGI (DU-145 prostate) was 4.54 µM, the TGI (LOX IMVI melanoma) was 4.9 µM and the TGI (NCI/ADR-RES ovarian) was 37.1 µM. It also gave a TGI (MDA-MB-435) of 26.3 µM, a TGI (SNB-19 CNS) of 8.98 µM and a TGI (SR leukemia) of 0.85 µM. It also gave a TGI (OVCAR-3 ovarian) of 7.86 µM, a TGI (NCI-H23 lung) of 8.26 µM and a TGI (MALME-3M melanoma) of 6.68 µM. It also gave a TGI (RXF 393 renal) of 14.9 µM, a TGI (OVCAR-5 ovarian) of 23.6 µM and a TGI (HT29 colon) of 7.16 µM. It also gave a TGI (SK-OV-3 ovarian) of 16.4 µM, a TGI (MCF7 breast) of 16.3 µM and a TGI (SN12C renal) of 3.18 µM. For the same compound, the TGI (M14 melanoma) was 17.8 µM, the TGI (TK-10 renal) was 15.6 µM and the TGI (A549 NSCLC) was 5.99 µM. It also gave a TGI (SW-620 colon) of 21.3 µM, a TGI (EKVX NSCLC) of 28.8 µM and a TGI (HOP-62 NSCLC) of 5.72 µM. It also gave a TGI (OVCAR-4 ovarian) of 32.4 µM, a TGI (HCT-15 colon) of 6.41 µM and a TGI (PC-3 prostate) of 17.6 µM. It also gave a TGI (K-562 leukemia) greater than 42.7 µM, a TGI (A498 renal) of 6 µM and a TGI (COLO 205 colon) of 20.8 µM. The TGI (UACC-257 melanoma) was 19.8 µM, the TGI (CAKI-1 renal) was 13.7 µM and the TGI (NCI-H460 lung) was 2.6 µM. It also gave a TGI (HL-60(TB) leukemia) of 0.45 µM, a TGI (MDA-MB-231 breast) of 10.4 µM and a TGI (HCT-116 colon) of 13.2 µM. The TGI (UO-31 renal) was 6.47 µM, the TGI (CCRF-CEM leukemia) was 0.499 µM and the TGI (SK-MEL-28 melanoma) was 1.3 µM. It also gave a TGI (SF-295 CNS) of 8.31 µM, a TGI (SK-MEL-5 melanoma) of 14.7 µM and a TGI (MDA-N) of 20.2 µM. It also gave a TGI (NCI-H226 lung) of 13 µM, a TGI (U251 CNS) of 4.41 µM and a TGI (NCI-H522 lung) of 5.33 µM. It also gave a TGI (786-0 renal) of 3.49 µM, a TGI (BT-549 breast) of 9.99 µM and a TGI (KM12 colon) of 14.7 µM. The TGI (SK-MEL-2 melanoma) was 7.7 µM.
